Test results reported in US20250230148A1, “CRYSTAL OF FUSED TRICYCLIC DERIVATIVE OR PHARMACEUTICALLY ACCEPTABLE SALT THEREOF” (CHIA TAI TIANQING PHARMACEUTICAL GROUP CO., LTD., priority 2022, published 2025).

Legend:
[1] = Crystal stability under high humidity conditions, TGA after placement; type: physicochemical; conditions: 24 hours
Description: • Instrument model: TA Q5000/5500 Thermal Gravimetric Analyzer • Test method: Taking a sample (about 1 to 5 mg) and placing in a TGA aluminum dish for testing, and heating the sample from room temperature to 350° C. at a heating rate of 10° C./min under 10 mL/min N2 conditions.
The crystal form C of the compound of formula (I) was placed under different humidity conditions at room temperature and then tested by TGA to preliminarily evaluate its water content changes under different humidity conditions.

[2] = Dynamic vapor sorption (DVS) test; type: physicochemical
Description: • Instrument model: SMS DVS Advantage Dynamic Vapor Sorption Analyzer • Test conditions: Taking a sample (10 to 15 mg) and placing in a DVS sample dish for testing. • Detailed DVS parameters are as follows: • Temperature: 25° C. • Equilibration: dm/dt=0.01%/min (Minimum: 10 min, Maximum: 180 min) • Drying: drying 120 min under 0% RH • RH (%) test gradient: 10% • RH (%) test gradient range: 0% to 90% to 0%.
At the same time, a DVS test was performed on the crystal form C of the compound of formula (I).

[3] = Crystal stability under 94% RH, XRPD after placement; type: physicochemical; conditions: 94% RH at room temperature for 1 to 2 weeks
Description: • Instrument model: X' Pert3. • Method: taking a sample of about 10 to 20 mg for XRPD analysis. • Detailed XRPD parameters are as follows: • X-ray source: Cu, kα (Kα1=1.540598 Δ, Kα2=1.544426 Δ, Kα2/Kα1 intensity ratio: 0.5) • Tube voltage: 45 kV, tube current: 40 mA • Divergence slit: fixed ⅛° • First seller slit: 0.04 rad, Second soller slit: 0.04 rad • Receiving slit: none, Anti-scatter slit: 7.5 mm • Measurement time: 5 min • scan range: 3 to 40° • Step width angle: 0.0263° • Step length: 46.665 seconds • Rotation speed of sample plate: 60 rpm
The crystal form E of the compound of formula (I) was placed under 94% RH at room temperature for 1 to 2 weeks and then subjected to XRPD testing to evaluate its solid stability in the high humidity environment.

M2 receptor = M2 receptor (Homo sapiens (Human), UniProt P08172); experiment: M2 receptor affinity test (3H-NMS competition); type: binding; conditions: M2 receptor membrane protein, 0.2 nM 3H-NMS
Description: M2 receptor is a G protein-coupled receptor. In this experiment, the activity of test compound against the M2 receptor in vitro was assayed by the competition of radioisotope labeled NMS and non-isotope labeled test compound for an M2 binding site.
The M2 receptor membrane protein was prepared at 100 μg/mL by Biology Department of WuXi AppTec, and compound was serially diluted in a 2.5-fold gradient in DMSO to obtain 10 concentrations. Radioisotope 3H-NMS was prepared at 0.2 nM in an assay buffer (10 mM HEPES, 1 mM MgCl2, pH 7.40). In formal testing, the experimental system comprising 1 μL of the test compound, 100 μL of M2 receptor membrane protein and 100 μL of radioisotope was shaken in a shaker at 300 RPM for 2 h at room temperature. A GF/C plate (Perkin Elmer, Cat No. 6055690) was prefoamed with 0.3% PEI, and the membrane proteins in the reaction solution were collected by filtration onto the GF/C plate. The signal values were read by a Perkin Elmer Microbeta2 instrument and the inhibition rate for each concentration point was shown as a percentage.

Chain of M2 receptor (P08172 whole entry): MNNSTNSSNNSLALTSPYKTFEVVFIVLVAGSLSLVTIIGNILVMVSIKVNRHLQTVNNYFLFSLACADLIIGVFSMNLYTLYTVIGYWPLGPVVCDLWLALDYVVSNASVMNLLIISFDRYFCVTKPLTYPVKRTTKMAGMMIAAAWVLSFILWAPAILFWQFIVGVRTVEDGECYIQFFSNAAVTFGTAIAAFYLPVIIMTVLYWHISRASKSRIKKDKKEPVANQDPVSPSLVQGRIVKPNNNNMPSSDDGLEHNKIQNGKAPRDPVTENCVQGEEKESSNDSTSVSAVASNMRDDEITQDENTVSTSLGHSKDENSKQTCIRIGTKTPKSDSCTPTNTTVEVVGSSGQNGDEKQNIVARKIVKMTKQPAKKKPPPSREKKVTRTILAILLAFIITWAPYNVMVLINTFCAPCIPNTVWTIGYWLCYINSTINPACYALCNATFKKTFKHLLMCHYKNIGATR

## CN(CCCn1nnc2cc(CNC[C@H](O)c3ccc(O)c4[nH]c(=O)ccc34)c3c(c21)CCC3)[C@H]1CC[C@H](OC(=O)C(O)(c2cccs2)c2cccs2)CC1 [listing 1 of 3 here]
[1]; ~81% RH (saturated potassium bromide solution)/room temperature
  TGA weight loss (%, 150° C): 10.4%
[1]; ~94% RH (saturated potassium nitrate solution)/room temperature
  TGA weight loss (%, 150° C): 9.9%
[2]; 25° C./80% RH
  moisture adsorption: 7.84%
[2]; XRPD before and after DVS test
  crystal form after the DVS test (XRPD): remained unchanged

## CN(CCCn1nnc2cc(CNC[C@H](O)c3ccc(O)c4[nH]c(=O)ccc34)c3c(c21)CCC3)[C@H]1CC[C@H](OC(=O)C(O)(c2cccs2)c2cccs2)CC1 [listing 2 of 3 here]
[3]
  crystal form after placement (XRPD): remained unchanged

## CN(CCCn1nnc2cc(CNC[C@H](O)c3ccc(O)c4[nH]c(=O)ccc34)c3c(c21)CCC3)[C@H]1CC[C@H](OC(=O)C(O)(c2cccs2)c2cccs2)CC1 [listing 3 of 3 here]
M2 receptor
  IC50: 0.062 nM
